# Patent US20250228861A1, “Cancer Treatments Using MTA-Cooperative PRMT5 Inhibitors” (AMGEN INC., priority 2022, published 2025)
# What was measured:
# [1] = tested on: H292 cells; assay: Combination with paclitaxel, CellTiter-Glo viability, Fa and CalcuSyn CI; type: cell-based; details: 6 days;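 further: fa derived from raw luminescence, CI computed in CalcuSyn from drug concentrations and Fa, with CI under 0.9 indicating synergism and 0.9 to 1.1 nearly additive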
# Procedure: (§1) Cell viability was measured by the CellTiter-Glo Luminescence assay. Raw luminescent values were converted to fraction affected (Fa) with the following equation:
# (§2) Synergy analysis was performed using the CalcuSyn software to determine CI scores based on the drug concentrations used and corresponding Fa values.
# [2] = tested on: A549 cells; assay: as above; type: cell-based; details: 6 days
# Procedure: as §1, §2
# [3] = tested on: MIAPACA2T2 cells; assay: Combination with gemcitabine, CellTiter-Glo viability, Fa and CalcuSyn CI; type: cell-based; details: 6 days
# Procedure: as §1, §2
# [4] = tested on: MIAPACA2T2 cells; assay: Combination with carboplatin, CellTiter-Glo viability, Fa and CalcuSyn CI; type: cell-based; details: 6 days
# Procedure: as §1, §2
# [5] = tested on: MIAPACA2T2 cells; assay: Combination with irinotecan, CellTiter-Glo viability, Fa and CalcuSyn CI; type: cell-based; details: 6 days
# Procedure: as §1, §2
# [6] = tested on: PSN1 cells; assay: as above; type: cell-based; details: 6 days
# Procedure: as §1, §2
# [7] = tested on: H292 NSCLC xenografts; assay: H292 NSCLC xenografts, combination with chemotherapy; type: in vivo, mice; details: 100 mg/kg orally once daily + paclitaxel 20 mg/kg IP
# [8] = tested on: H292 cells; assay: Combination with pemetrexed, CellTiter-Glo viability, Fa and CalcuSyn CI; details: 6 days;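 further: fa derived from CellTiter-Glo luminescence signal, CI calculated in CalcuSyn from doses and Fa, with 0.9–1.1 nearly additive and smaller values indicating synergism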
# Procedure: as §1, §2
# [9] = tested on: A549 cells; assay: as above; details: 6 days
# Procedure: as §1, §2
# [10] = Compound G 0.437382 μM fixed + Paclitaxel 0.0005 μM
# [11] = Compound G 0.437382 μM fixed + Paclitaxel 0.0007 μM
# [12] = Compound G 0.437382 μM fixed + Paclitaxel 0.0009 μM
# [13] = Compound G 0.437382 μM fixed + Paclitaxel 0.0011 μM
# [14] = Compound G 0.437382 μM fixed + Paclitaxel 0.0015 μM
# [15] = Compound G 0.437382 μM fixed + Paclitaxel 0.0019 μM
# [16] = Compound G 0.437382 μM fixed + Paclitaxel 0.0025 μM
# [17] = Compound G 0.831 μM fixed + Gemcitabine 0.001322 μM
# [18] = Compound G 0.831 μM fixed + Gemcitabine 0.001784 μM
# [19] = Compound G 0.831 μM fixed + Gemcitabine 0.002409 μM
# [20] = Compound G 0.831 μM fixed + Gemcitabine 0.003252 μM
# [21] = Compound G 0.831 μM fixed + Gemcitabine 0.00439 μM
# [22] = Compound G 0.831 μM fixed + Gemcitabine 0.005926 μM
# [23] = Compound G 0.831 μM fixed + Gemcitabine 0.008 μM
# [24] = Compound G 0.831 μM fixed + Carboplatin 2.47793 μM
# [25] = Compound G 0.831 μM fixed + Carboplatin 3.3452 μM
# [26] = Compound G 0.831 μM fixed + Carboplatin 4.51602 μM
# [27] = Compound G 0.831 μM fixed + Carboplatin 6.09663 μM
# [28] = Compound G 0.831 μM fixed + Carboplatin 8.23045 μM
# [29] = Compound G 0.831 μM fixed + Carboplatin 11.1111 μM
# [30] = Compound G 0.831 μM fixed + Carboplatin 15 μM
# [31] = Compound G 0.83102 μM fixed + Irinotecan 0.131072 μM
# [32] = Compound G 0.83102 μM fixed + Irinotecan 0.16384 μM
# [33] = Compound G 0.83102 μM fixed + Irinotecan 0.2048 μM
# [34] = Compound G 0.83102 μM fixed + Irinotecan 0.256 μM
# [35] = Compound G 0.83102 μM fixed + Irinotecan 0.4 μM
# [36] = Compound G 0.83102 μM fixed + Irinotecan 0.5 μM
# [37] = Compound G 0.83102 μM fixed + Irinotecan […]
# [38] = Compound G 0.0213 μM fixed + Irinotecan 0.035117 μM
# [39] = Compound G 0.0213 μM fixed + Irinotecan 0.052675 μM
# [40] = Compound G 0.0213 μM fixed + Irinotecan 0.079012 μM
# [41] = Compound G 0.0213 μM fixed + Irinotecan 0.118519 μM
# [42] = Compound G 0.0213 μM fixed + Irinotecan 0.177778 μM
# [43] = Compound G 0.0213 μM fixed + Irinotecan 0.266667 μM
# [44] = Compound G 0.0213 μM fixed + Irinotecan 0.4 μM
# [45] = Compound G 0.437382 μM fixed + Pemetrexed 0.082858 μM
# [46] = Compound G 0.437382 μM fixed + Pemetrexed 0.140859 μM
# [47] = Compound G 0.437382 μM fixed + Pemetrexed 0.239461 μM
# [48] = Compound G 0.437382 μM fixed + Pemetrexed 0.407083 μM
# [49] = Compound G 0.437382 μM fixed + Pemetrexed 0.692042 μM
# [50] = Compound G 0.437382 μM fixed + Pemetrexed 1.17647 μM
# [51] = Compound G 0.437382 μM fixed + Pemetrexed 2 μM
smiles,measurement,setting,value
Nc1nc2cnc(C(=O)N3CCOC[C@@H]3c3ccc(C(F)(F)F)cc3)cc2c2c1COC2 [Compound G],Combination Fa,[1]; [10],0.6656
same,Computed CI value,[1]; [10],0.92
same,Combination Fa,[1]; [11],0.7749
same,Computed CI value,[1]; [11],0.728
same,Combination Fa,[1]; [12],0.8617
same,Computed CI value,[1]; [12],0.658
same,Combination Fa,[1]; [13],0.8929
same,Computed CI value,[1]; [13],0.704
same,Combination Fa,[1]; [14],0.9417
same,Computed CI value,[1]; [14],0.749
same,Combination Fa,[1]; [15],0.957
same,Computed CI value,[1]; [15],0.85
same,Combination Fa,[1]; [16],0.974
same,Computed CI value,[1]; [16],0.94
same,Combination Fa,[2]; [10],0.6362
same,Computed CI value,[2]; [10],0.639
same,Combination Fa,[2]; [11],0.6087
same,Computed CI value,[2]; [11],0.863
same,Combination Fa,[2]; [12],0.7048
same,Computed CI value,[2]; [12],0.786
same,Combination Fa,[2]; [13],0.7817
same,Computed CI value,[2]; [13],0.77
same,Combination Fa,[2]; [14],0.9048
same,Computed CI value,[2]; [14],0.736
same,Combination Fa,[2]; [15],0.95
same,Computed CI value,[2]; [15],0.759
same,Combination Fa,[2]; [16],0.9687
same,Computed CI value,[2]; [16],0.869
same,Combination Fa,[3]; [17],0.599
same,Computed CI value,[3]; [17],1.117
same,Combination Fa,[3]; [18],0.66
same,Computed CI value,[3]; [18],1.094
same,Combination Fa,[3]; [19],0.787
same,Computed CI value,[3]; [19],0.962
same,Combination Fa,[3]; [20],0.93
same,Computed CI value,[3]; [20],0.793
same,Combination Fa,[3]; [21],0.969
same,Computed CI value,[3]; [21],0.825
same,Combination Fa,[3]; [22],0.989
same,Computed CI value,[3]; [22],0.826
same,Combination Fa,[3]; [23],0.993
same,Computed CI value,[3]; [23],0.981
same,Combination Fa,[4]; [24],0.711
same,Computed CI value,[4]; [24],0.599
same,Combination Fa,[4]; [25],0.766
same,Computed CI value,[4]; [25],0.521
same,Combination Fa,[4]; [26],0.832
same,Computed CI value,[4]; [26],0.437
same,Combination Fa,[4]; [27],0.881
same,Computed CI value,[4]; [27],0.402
same,Combination Fa,[4]; [28],0.939
same,Computed CI value,[4]; [28],0.322
same,Combination Fa,[4]; [29],0.963
same,Computed CI value,[4]; [29],0.313
same,Combination Fa,[4]; [30],0.966
same,Computed CI value,[4]; [30],0.396
same,Combination Fa,[5]; [31],0.718
same,Computed CI value,[5]; [31],0.691
same,Combination Fa,[5]; [32],0.7359
same,Computed CI value,[5]; [32],0.751
same,Combination Fa,[5]; [33],0.8028
same,Computed CI value,[5]; [33],0.72
same,Combination Fa,[5]; [34],0.8794
same,Computed CI value,[5]; [34],0.677
same,Combination Fa,[5]; [35],0.9677
same,Computed CI value,[5]; [35],0.655
same,Combination Fa,[5]; [36],0.9854
same,Computed CI value,[5]; [36],0.649
same,Combination Fa,[5]; [37],0.9132
same,Computed CI value,[5]; [37],0.729
same,Combination Fa,[6]; [38],0.4007
same,Computed CI value,[6]; [38],0.981
same,Combination Fa,[6]; [39],0.3585
same,Computed CI value,[6]; [39],1.28
same,Combination Fa,[6]; [40],0.4649
same,Computed CI value,[6]; [40],1.168
same,Combination Fa,[6]; [41],0.6137
same,Computed CI value,[6]; [41],1.087
same,Combination Fa,[6]; [42],0.8505
same,Computed CI value,[6]; [42],0.852
same,Combination Fa,[6]; [43],0.9402
same,Computed CI value,[6]; [43],0.836
same,Combination Fa,[6]; [44],0.9731
same,Computed CI value,[6]; [44],0.916
same,anti-tumor activity of combination with paclitaxel,[7],significant anti-tumor activity versus either single agent alone
same,Combination Fa,[8]; [45],0.602
same,Computed CI value,[8]; [45],1.359
same,Combination Fa,[8]; [46],0.63
same,Computed CI value,[8]; [46],1.184
same,Combination Fa,[8]; [47],0.678
same,Computed CI value,[8]; [47],0.914
same,Combination Fa,[8]; [48],0.741
same,Computed CI value,[8]; [48],0.64
same,Combination Fa,[8]; [49],0.827
same,Computed CI value,[8]; [49],0.342
same,Combination Fa,[8]; [50],0.885
same,Computed CI value,[8]; [50],0.216
same,Combination Fa,[8]; [51],0.904
same,Computed CI value,[8]; [51],0.235
same,Combination Fa,[9]; [45],0.669
same,Computed CI value,[9]; [45],0.846
same,Combination Fa,[9]; [46],0.651
same,Computed CI value,[9]; [46],1.064
same,Combination Fa,[9]; [47],0.693
same,Computed CI value,[9]; [47],0.882
same,Combination Fa,[9]; [48],0.712
same,Computed CI value,[9]; [48],0.922
same,Combination Fa,[9]; [49],0.834
same,Computed CI value,[9]; [49],0.363
same,Combination Fa,[9]; [50],0.918
same,Computed CI value,[9]; [50],0.132
same,Combination Fa,[9]; [51],0.948
same,Computed CI value,[9]; [51],0.087
